{"source": "patent US10918655B2", "about": "“Stimulating platelet generation by activating mitochondrial biogenesis” (THE GENERAL HOSPITAL CORPORATION, priority 2016, dated 2021)", "key": {"[1]": {"tested_on": "IEX-1-deficient mice", "details": "Ramsey et al., Platelets 2015; cited from earlier work"}, "[2]": {"tested_on": "5-FU-treated mice", "assay": "platelet production in vivo in 5-FU-induced thrombocytopenia with mito-drugs", "set-up": "species or system B6 mice", "details": "100 mg/kg gavage twice a day for 4 days", "procedure": "FIG. 10 provides a graph showing the enhancement of plt production by mito-drugs in vivo. All mice were treated with two doses of 5-FU (FU), along with an indicated mito-drug or LLLT for 4 consecutive days (red arrow). *, p<0.05, **, p<0.01 and ***, p<0.001 in the presence or absence of indicated drugs or LLLT. n=10 in each group.\nThe 5-FU-treated mice were gavaged with BEZ or Res at 100 mg/kg body weight or vehicle control twice a day for 4 consecutive days starting at 6 hr after the first 5-FU injection. For comparison, 5-FU-treated mice were also administered LLL daily for 4 consecutive days in parallel. […] Whether or not a higher dose or dosage of BEZ can further increase the efficacy remains to be investigated."}, "[3]": {"tested_on": "Mouse MKs", "assay": "platelet production ex vivo from MKs in the presence of mito-drugs", "format": "cell-based", "details": "for platelet generation from MKs ex vivo: Bezafibrate 400 μM, Resveratrol 50 μM, SRT1720 0.1 μM, AICAR 500 μM, MK medium for 3 days, compared to controls", "procedure": "FIG. 9 provides a graph showing enhancement of platelet production ex vivo by mito-drugs. C. control; Bez, Bezafibrate (400 μM); Res, Resveratrol (50 μM); SRT1720, 0.1 μM; Aicar, AICAR (500 μM); LLL, 810 nm 3 J/cm^2. Mouse MKs were differentiated in MK medium for 3 days in the presence of an indicated drug or after LLLT. **, p<0.01 and ***, p<0.001 compared to controls. n=6.\nSome mito-drugs tested enhance platelet production from MKs ex vivo. […] The concentration used for individual drugs is the one commonly used for inducing PGC-1α expression in other cell cultures except for SRT1720 that was used at a 100× lower concentration. […] Perhaps, the concentration of each drug can be further optimized for enhancing platelet production."}, "[4]": {"tested_on": "circulating platelet counts", "assay": "circulating platelet counts in mice receiving 5-FU", "format": "in vivo", "details": "on day 4; dose of 150 mg/kg body weight", "procedure": "FIGS. 6A-6D provide graphs showing that LLL alleviates thrombocytopenia induced by anti-CD41 antibody or 5-FU in mice. (A and B) Mice were administered daily with 0.1 mg/kg anti-CD41 antibody over 7 days. LLL was given daily from day 3 to day 7. […] LLL was given daily for 3 consecutive days starting at 4 hr after 5-FU injection. Platelet counts (A and C) were measured daily at 6 hr post-LLL and a tail bleeding time (B and D) was examined on day 5 (B) or day 4 (D). n=6; ns, no significance; and *P<0.05, **P<0.01, ***P<0.001 compared between indicated groups.\nWe further extended our investigation to ITP precluding that LLL-mediated thrombopoiesis was specific for thrombocytopenia induced by γ-irradiation. We depleted platelets by administering anti-CD41 antibody daily at 0.1 mg/kg body weight from day 0 to day 7 to create a commonly used animal model of ITP. Katsman et al., Transfusion 50, 1285-1294 (2010). […] LLL lifted the nadir effectively after only two treatments (day 4) and greatly accelerated a recovery of platelet counts in the presence of anti-CD41 antibody, although platelet counts were rebound in all the mice eventually owing to compensatory thrombopoiesis (FIG. 6A). Bleeding time was also normalized on day 5 in LLL-treated animals (FIG. 6B). […]"}, "[5]": {"tested_on": "PPF-MKs", "details": "Richardson et al., Blood 2005; cited from earlier work"}, "[6]": {"tested_on": "MKs", "assay": "platelet production from LLL-treated MKs with Oligomycin A in MK medium", "format": "cell-based, mouse", "details": "5 μg/ml in MK medium", "procedure": "(§1) FIGS. 1A-1H provide graphs and images showing LLL promotes MK maturation and platelet production. (A) Illustration of time lines of ex vivo platelet differentiation from MKs. CD41+ FSC^high MKs were sorted from BM cells, treated with or without LLL, and cultured in MK medium. MKs were collected 1 hr later for cellular ATP measurement (B), 1 day for studying proplatelet formation (C-F) or 3 days for counting platelets (G). (B) ATP was measured in 5×10^4 MKs treated with LLL at various energy densities. (C) Sizes of CD41+ MKs were analyzed by flow cytometric analysis of forward/side scatter (FSC) before and after 24 hr differentiation. (D) Representative transmission electron micrographs of MKs from at least 6 samples per group with 30 cells in each group. N, nuclear; IMS, invaginated membrane system. […] (F) The numbers indicated percentages of small or large PPF-MKs of at least 500 MKs analyzed per sample and 6 samples per group. ###P<0.001, large PPF-MKs and **P<0.01, total PPF-MKs compared between the two groups. […]\n(§2) FIGS. 2A-2H provide graphs and images showing the thrombopoietic effect of LLL is ATP-dependent. (A) Correlations between MK ATP levels at 1 hr post-LLL and platelets measured in 3 days later are analyzed by coefficient of determination. […] Mitochondrial membrane potential of CD41+ FSC^high MKs was determined by flow cytometric analysis of red J-aggregate fluorescence at 590 nm. […]"}, "[7]": {"tested_on": "MKs", "assay": "ATP measurement in MKs with Oligomycin A", "format": "cell-based, mouse", "details": "5 μg/ml", "procedure": "as §1, §2"}}, "data": [{"molecule": "COC1=C(OC)C(=O)C(CCCCCCCCCC[P+](c2ccccc2)(c2ccccc2)c2ccccc2)=C(C)C1=O", "note": "[mitoquinone]", "values": [{"measurement": "thrombocytopenia in IEX-1-deficient mice", "setting": "[1]", "value": "completely reverse thrombocytopenia"}]}, {"molecule": "Oc1ccc(C=Cc2cc(O)cc(O)c2)cc1", "note": "[resveratrol]", "values": [{"measurement": "efficacy compared to BEZ or LLLT", "setting": "[2]; 5-FU-treated mice", "value": "relatively weak"}, {"measurement": "nadir of platelet counts", "setting": "[2]; 5-FU-treated mice", "value": "lifted the nadir significantly"}, {"measurement": "platelet biogenesis", "setting": "[2]; 5-FU-treated mice", "value": "augmented platelet biogenesis"}, {"measurement": "platelet generation from MKs ex vivo", "setting": "[3]", "value": "enhance platelet generation from MKs ex vivo significantly"}]}, {"molecule": "CC(C)(Oc1ccc(CCNC(=O)c2ccc(Cl)cc2)cc1)C(=O)O", "note": "[BEZ, bezafibrate]", "values": [{"measurement": "platelet counts sustained", "setting": "[2]; 5-FU 120 and 90 mg/kg on days 1 and 4", "value": "≥ 70", "unit": "% the normal value"}]}, {"molecule": "O=C(Nc1ccccc1-c1cn2c(CN3CCNCC3)csc2n1)c1cnc2ccccc2n1", "note": "[SRT1720]", "values": [{"measurement": "platelet generation from MKs ex vivo", "setting": "[3]", "value": "enhance platelet generation from MKs ex vivo significantly"}, {"measurement": "platelet production", "setting": "[3]; higher concentration of SRT1720 (than 0.1 μM)", "value": "did not increase platelet production significantly"}]}, {"molecule": "O=c1[nH]cc(F)c(=O)[nH]1", "note": "[5-FU, 5-fluorouracil]", "values": [{"measurement": "diminished circulating platelet counts", "setting": "[4]", "value": 43, "unit": "%"}]}, {"molecule": "Nc1ncnc2c1ncn2[C@@H]1O[C@H](COP(=O)(O)OP(=O)(O)OP(=O)(O)O)[C@@H](O)[C@H]1O", "note": "[ATP]", "values": [{"measurement": "proplatelet elongation", "setting": "[5]", "value": "activated proplatelet elongation"}, {"measurement": "proplatelet growth", "setting": "[5]", "value": "significantly enhanced proplatelet growth"}]}, {"molecule": "CC[C@@H]1/C=C/C=C/C[C@H](C)[C@H](O)[C@](C)(O)C(=O)[C@H](C)[C@@H](O)[C@H](C)C(=O)[C@H](C)[C@@H](O)[C@H](C)/C=C/C(=O)O[C@H]2[C@@H](C)[C@@H](CC1)O[C@@]1(CC[C@@H](C)[C@@H](C[C@H](C)O)O1)[C@@H]2C", "note": "[Oligomycin A]", "values": [{"measurement": "LLL-mediated enhancement of platelet generation", "setting": "[6]", "value": "severely blunted"}, {"measurement": "ATP synthesis in the cells", "setting": "[7]", "value": "reduces ATP synthesis"}]}]}
